Measurements reported in patent US20240368135A1 (VERTEX PHARMACEUTICALS INCORPORATED, priority 2021, published 2024).

Molecular target: human NaV 1.8 (Homo sapiens, UniProt Q9Y5Y9)
Experiment: E-VIPR assay detecting and measuring NaV inhibition properties
Type: cell-based
Conditions: HEK cells expressing truncated human NaV 1.8; no human serum; read-out: IC50 in the E-VIPR Assay
Summary of the method: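 HEK cells expressing truncated, fully active human NaV1.8, with KIR2.1 BacMam co-transduction, were loaded with CC2-DMPE/DiSBAC6(3) voltage-sensing dyes for 20 min at room temperature. Compounds were tested in 11-point 3-fold dilutions (300 nM top final), optionally with 25% human serum, under electrical stimulation with FRET read-out.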

Sequence of human NaV 1.8 (Q9Y5Y9 126-399 limits assumed): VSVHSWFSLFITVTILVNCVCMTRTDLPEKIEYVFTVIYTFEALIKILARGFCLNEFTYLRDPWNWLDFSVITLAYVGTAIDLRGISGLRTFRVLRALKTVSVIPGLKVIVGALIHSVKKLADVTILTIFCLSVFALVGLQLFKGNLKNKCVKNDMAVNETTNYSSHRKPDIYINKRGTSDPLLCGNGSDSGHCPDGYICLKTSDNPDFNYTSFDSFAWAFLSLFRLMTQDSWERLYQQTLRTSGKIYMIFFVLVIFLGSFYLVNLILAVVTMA
Sequence of human NaV 1.8 (Q9Y5Y9 660-890 limits assumed): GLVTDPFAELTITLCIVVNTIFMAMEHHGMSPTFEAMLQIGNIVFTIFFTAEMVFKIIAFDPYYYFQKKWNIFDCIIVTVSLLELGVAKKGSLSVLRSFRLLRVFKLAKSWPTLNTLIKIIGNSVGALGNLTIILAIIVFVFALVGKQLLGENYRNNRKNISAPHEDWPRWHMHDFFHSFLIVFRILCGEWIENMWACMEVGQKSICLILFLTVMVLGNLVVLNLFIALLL
Sequence of human NaV 1.8 (Q9Y5Y9 1148-1722 limits assumed): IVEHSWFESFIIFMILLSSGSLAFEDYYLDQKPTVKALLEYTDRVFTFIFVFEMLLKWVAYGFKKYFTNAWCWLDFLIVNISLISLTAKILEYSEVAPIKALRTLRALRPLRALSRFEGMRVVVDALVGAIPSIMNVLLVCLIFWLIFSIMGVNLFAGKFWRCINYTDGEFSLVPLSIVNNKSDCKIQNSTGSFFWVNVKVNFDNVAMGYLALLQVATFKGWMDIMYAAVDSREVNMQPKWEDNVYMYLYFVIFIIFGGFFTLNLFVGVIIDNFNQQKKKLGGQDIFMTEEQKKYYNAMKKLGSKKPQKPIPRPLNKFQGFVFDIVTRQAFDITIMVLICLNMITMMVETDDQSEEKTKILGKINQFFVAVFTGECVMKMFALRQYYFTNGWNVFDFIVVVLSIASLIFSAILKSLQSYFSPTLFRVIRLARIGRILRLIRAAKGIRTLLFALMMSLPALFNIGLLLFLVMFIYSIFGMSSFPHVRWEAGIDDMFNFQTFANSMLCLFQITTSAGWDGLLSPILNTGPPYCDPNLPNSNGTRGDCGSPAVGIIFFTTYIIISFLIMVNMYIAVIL

Row | SMILES | IC50
1 | COc1c([C@H]2[C@H](C(=O)Nc3ccnc(N4C(=O)CN5CCC4CC5)c3)O[C@@](C)(C(F)(F)F)[C@H]2C)ccc(F)c1F [Compound 468, (2R,3S,4S,5R)-3-(3,4-difluoro-2-methoxyphenyl)-4,5-dimethyl-N-(2-(3-oxo-1,4-diazabicyclo[3.2.2]nonan-4-yl)pyridin-4-yl)-5-(trifluoromethyl)tetrahydrofuran-2-carboxamide] | 10 to 100 nM
2 | COc1c([C@H]2[C@H](C(=O)Nc3ccnc(N4C(=O)CN(C)C[C@@H]4C)c3)O[C@@](C)(C(F)(F)F)[C@H]2C)ccc(F)c1F [Compound 469, (2R,3S,4S,5R)-3-(3,4-difluoro-2-methoxyphenyl)-N-(2-((S)-2,4-dimethyl-6-oxopiperazin-1-yl)pyridin-4-yl)-4,5-dimethyl-5-(trifluoromethyl)tetrahydrofuran-2-carboxamide] | < 10 nM
3 | COc1c([C@H]2[C@H](C(=O)Nc3ccnc(N4C[C@@H](C)N(C)CC4=O)c3)O[C@@](C)(C(F)(F)F)[C@H]2C)ccc(F)c1F [Compound 470, (2R,3S,4S,5R)-3-(3,4-difluoro-2-methoxyphenyl)-N-(2-((R)-4,5-dimethyl-2-oxopiperazin-1-yl)pyridin-4-yl)-4,5-dimethyl-5-(trifluoromethyl)tetrahydrofuran-2-carboxamide] | < 10 nM
4 | COc1c([C@H]2[C@H](C(=O)Nc3ccnc(N4CC[C@@H](O)C4=O)c3)O[C@@](C)(C(F)(F)F)[C@H]2C)ccc(F)c1F [Compound 471, (2R,3S,4S,5R)-3-(3,4-difluoro-2-methoxyphenyl)-N-(2-((R)-3-hydroxy-2-oxopyrrolidin-1-yl)pyridin-4-yl)-4,5-dimethyl-5-(trifluoromethyl)tetrahydrofuran-2-carboxamide] | 10 to 100 nM
5 | COc1c([C@H]2[C@H](C(=O)Nc3ccnc(NC(=O)CN(C)C)c3)O[C@@](C)(C(F)(F)F)[C@H]2C)ccc(F)c1F [Compound 472, (2R,3S,4S,5R)-3-(3,4-difluoro-2-methoxyphenyl)-N-(2-(2-(dimethylamino)acetamido)pyridin-4-yl)-4,5-dimethyl-5-(trifluoromethyl)tetrahydrofuran-2-carboxamide] | 10 to 100 nM
6 | COc1c([C@H]2[C@H](C(=O)Nc3ccnc(N4CC[C@H](O)C4=O)c3)O[C@@](C)(C(F)(F)F)[C@H]2C)ccc(F)c1F [Compound 473, (2R,3S,4S,5R)-3-(3,4-difluoro-2-methoxyphenyl)-N-(2-((S)-3-hydroxy-2-oxopyrrolidin-1-yl)pyridin-4-yl)-4,5-dimethyl-5-(trifluoromethyl)tetrahydrofuran-2-carboxamide] | 10 to 100 nM
7 | COc1c([C@H]2[C@H](C(=O)Nc3ccnc(N4C[C@H](C)N(C)CC4=O)c3)O[C@@](C)(C(F)(F)F)[C@H]2C)ccc(F)c1F [Compound 474, (2R,3S,4S,5R)-3-(3,4-difluoro-2-methoxyphenyl)-N-(2-((S)-4,5-dimethyl-2-oxopiperazin-1-yl)pyridin-4-yl)-4,5-dimethyl-5-(trifluoromethyl)tetrahydrofuran-2-carboxamide] | < 10 nM
8 | COc1c([C@H]2[C@H](C(=O)Nc3ccnc(N4CCN(C)[C@H](C)C4=O)c3)O[C@@](C)(C(F)(F)F)[C@H]2C)ccc(F)c1F [Compound 475, (2R,3S,4S,5R)-3-(3,4-difluoro-2-methoxyphenyl)-N-(2-((R)-3,4-dimethyl-2-oxopiperazin-1-yl)pyridin-4-yl)-4,5-dimethyl-5-(trifluoromethyl)tetrahydrofuran-2-carboxamide] | 10 to 100 nM
9 | COc1c([C@H]2[C@H](C(=O)Nc3ccnc(N4CCN(C)[C@@H](C)C4=O)c3)O[C@@](C)(C(F)(F)F)[C@H]2C)ccc(F)c1F [Compound 476, (2R,3S,4S,5R)-3-(3,4-difluoro-2-methoxyphenyl)-N-(2-((S)-3,4-dimethyl-2-oxopiperazin-1-yl)pyridin-4-yl)-4,5-dimethyl-5-(trifluoromethyl)tetrahydrofuran-2-carboxamide] | 10 to 100 nM
10 | COc1c([C@H]2[C@H](C(=O)Nc3ccnc(N4C(=O)CNC[C@H]4C)c3)O[C@@](C)(C(F)(F)F)[C@H]2C)ccc(F)c1F [Compound 477, (2R,3S,4S,5R)-3-(3,4-difluoro-2-methoxyphenyl)-4,5-dimethyl-N-(2-((R)-2-methyl-6-oxopiperazin-1-yl)pyridin-4-yl)-5-(trifluoromethyl)tetrahydrofuran-2-carboxamide] | 10 to 100 nM
11 | COc1c([C@H]2[C@H](C(=O)Nc3ccnc(N4C[C@H](C)NCC4=O)c3)O[C@@](C)(C(F)(F)F)[C@H]2C)ccc(F)c1F [Compound 478, (2R,3S,4S,5R)-3-(3,4-difluoro-2-methoxyphenyl)-4,5-dimethyl-N-(2-((S)-5-methyl-2-oxopiperazin-1-yl)pyridin-4-yl)-5-(trifluoromethyl)tetrahydrofuran-2-carboxamide] | 10 to 100 nM
12 | COc1c([C@H]2[C@H](C(=O)Nc3ccnc(N4C(=O)CNC[C@@H]4C)c3)O[C@@](C)(C(F)(F)F)[C@H]2C)ccc(F)c1F [Compound 479, (2R,3S,4S,5R)-3-(3,4-difluoro-2-methoxyphenyl)-4,5-dimethyl-N-(2-((S)-2-methyl-6-oxopiperazin-1-yl)pyridin-4-yl)-5-(trifluoromethyl)tetrahydrofuran-2-carboxamide] | 10 to 100 nM
13 | COc1c([C@H]2[C@H](C(=O)Nc3ccnc(N4C[C@@H](C)NCC4=O)c3)O[C@@](C)(C(F)(F)F)[C@H]2C)ccc(F)c1F [Compound 480, (2R,3S,4S,5R)-3-(3,4-difluoro-2-methoxyphenyl)-4,5-dimethyl-N-(2-((R)-5-methyl-2-oxopiperazin-1-yl)pyridin-4-yl)-5-(trifluoromethyl)tetrahydrofuran-2-carboxamide] | < 10 nM
14 | COc1c([C@H]2[C@H](C(=O)Nc3ccnc(N4CCCNCC4=O)c3)O[C@@](C)(C(F)(F)F)[C@H]2C)ccc(F)c1F [Compound 481, (2R,3S,4S,5R)-3-(3,4-difluoro-2-methoxyphenyl)-4,5-dimethyl-N-(2-(2-oxo-1,4-diazepan-1-yl)pyridin-4-yl)-5-(trifluoromethyl)tetrahydrofuran-2-carboxamide] | 10 to 100 nM
15 | COc1c([C@H]2[C@H](C(=O)Nc3ccnc(N4C(=O)[C@H]5C[C@@H]4CN5)c3)O[C@@](C)(C(F)(F)F)[C@H]2C)ccc(F)c1F [Compound 482, (2R,3S,4S,5R)-3-(3,4-difluoro-2-methoxyphenyl)-4,5-dimethyl-N-(2-((1R,4R)-3-oxo-2,5-diazabicyclo[2.2.1]heptan-2-yl)pyridin-4-yl)-5-(trifluoromethyl)tetrahydrofuran-2-carboxamide] | 10 to 100 nM
16 | COc1c([C@H]2[C@H](C(=O)Nc3ccnc(N4C(=O)[C@@H]5C[C@H]4CN5)c3)O[C@@](C)(C(F)(F)F)[C@H]2C)ccc(F)c1F [Compound 483, (2R,3S,4S,5R)-3-(3,4-difluoro-2-methoxyphenyl)-4,5-dimethyl-N-(2-((1S,4S)-3-oxo-2,5-diazabicyclo[2.2.1]heptan-2-yl)pyridin-4-yl)-5-(trifluoromethyl)tetrahydrofuran-2-carboxamide] | 10 to 100 nM
17 | COc1c([C@H]2[C@H](C(=O)Nc3ccnc(N4CCN[C@H](C)C4=O)c3)O[C@@](C)(C(F)(F)F)[C@H]2C)ccc(F)c1F [Compound 484, (2R,3S,4S,5R)-3-(3,4-difluoro-2-methoxyphenyl)-4,5-dimethyl-N-(2-((R)-3-methyl-2-oxopiperazin-1-yl)pyridin-4-yl)-5-(trifluoromethyl)tetrahydrofuran-2-carboxamide] | 10 to 100 nM
18 | COc1c([C@H]2[C@H](C(=O)Nc3ccnc(N4CCN[C@@H](C)C4=O)c3)O[C@@](C)(C(F)(F)F)[C@H]2C)ccc(F)c1F [Compound 485, (2R,3S,4S,5R)-3-(3,4-difluoro-2-methoxyphenyl)-4,5-dimethyl-N-(2-((S)-3-methyl-2-oxopiperazin-1-yl)pyridin-4-yl)-5-(trifluoromethyl)tetrahydrofuran-2-carboxamide] | < 10 nM
19 | CNCC(=O)N(C)c1cc(NC(=O)[C@@H]2O[C@@](C)(C(F)(F)F)[C@@H](C)[C@H]2c2ccc(F)c(F)c2OC)ccn1 [Compound 486, (2R,3S,4S,5R)-3-(3,4-difluoro-2-methoxyphenyl)-4,5-dimethyl-N-(2-(N-methyl-2-(methylamino)acetamido)pyridin-4-yl)-5-(trifluoromethyl)tetrahydrofuran-2-carboxamide] | < 10 nM
20 | CNC(=O)CN(C)c1cc(NC(=O)[C@@H]2O[C@@](C)(C(F)(F)F)[C@@H](C)[C@H]2c2ccc(F)c(F)c2OC)ccn1 [Compound 487, (2R,3S,4S,5R)-3-(3,4-difluoro-2-methoxyphenyl)-4,5-dimethyl-N-(2-(methyl(2-(methylamino)-2-oxoethyl)amino)pyridin-4-yl)-5-(trifluoromethyl)tetrahydrofuran-2-carboxamide] | < 10 nM
21 | CNCC(=O)Nc1cc(NC(=O)[C@@H]2O[C@@](C)(C(F)(F)F)[C@@H](C)[C@H]2c2ccc(F)c(F)c2OC)ccn1 [Compound 488] | 10 to 100 nM
22 | COc1c([C@H]2[C@H](C(=O)Nc3ccnc(N4C(=O)[C@@H]5C[C@H]4CN5C)c3)O[C@@](C)(C(F)(F)F)[C@H]2C)ccc(F)c1F [Compound 489, (2R,3S,4S,5R)-3-(3,4-difluoro-2-methoxyphenyl)-4,5-dimethyl-N-(2-((1S,4S)-5-methyl-3-oxo-2,5-diazabicyclo[2.2.1]heptan-2-yl)pyridin-4-yl)-5-(trifluoromethyl)tetrahydrofuran-2-carboxamide] | 10 to 100 nM
23 | COc1c([C@H]2[C@H](C(=O)Nc3ccnc(N4C(=O)[C@H]5C[C@@H]4CN5C)c3)O[C@@](C)(C(F)(F)F)[C@H]2C)ccc(F)c1F [Compound 490, (2R,3S,4S,5R)-3-(3,4-difluoro-2-methoxyphenyl)-4,5-dimethyl-N-(2-((1R,4R)-5-methyl-3-oxo-2,5-diazabicyclo[2.2.1]heptan-2-yl)pyridin-4-yl)-5-(trifluoromethyl)tetrahydrofuran-2-carboxamide] | 10 to 100 nM
